These results are taken from patent US7022882B2, “NMDA receptor channel blocker with neuroprotective activity” (priority 2000, dated 2006).

Values joined by “and” are separate entries in the source; they are usually repeats but may differ in a detail not shown here. Equal entries are not always repeated. “Also recorded” adds a separate entry of the source. Where two headings read alike, the source gives them in different places.

Assay [1] relates to cultured rat hippocampal neurons. The assay can be described thus: Excitotoxic assay in hippocampal cultures, NMDA challenge, trypan blue exclusion. The note with it: 200 μM NMDA and 20 μM glycine for 20 min; for protection from NMDA receptor-mediated cell death: 10 μM, cell death by NMDA alone = 100%. The class given is cell-based. Here is the method: (§1) Mixed hippocampal neuron/glia primary cultures were employed to assess the neuroprotective activities of the identified lead against NMDA receptor-mediated excitotoxic cell death. Primary culture of rat hippocampal neurons were prepared as previously described (Ferrer-Montiel A. V., et al., Nat. Biotechnol., 16(3):286–91, 1998; Schinder A. F., et al.; J. Neurosci., 16(19):6125–33, 1996). In brief, hippocampi from E17–E19 rat embryos were first taken out and incubated at 4° C. in a saline (BSS) containing (mM): 137 NaCl, 3.5 KCl, 0.4 KH2PO4, 0.33 Na2HPO4.7H2O, 5 TES, and 10 glucose, pH 7.4. Hippocampi were then incubated in 0.25% trypsin (1×) solution from Hyclone at 37° C. for 15 min. Tissues were then washed and resuspended in minimal essential medium (Earle's salt) supplemented with 10% heat-inactivated horse serum (Hyclone), 10% fetal bovine serum (Hyclone), 1 mM […], 22 mM glucose, 20U/ml penicillin and 20 ug/ml streptomycin. Digested hippocampi were eventually dissociated by pipetting through a Pasteur pipette. Cells were plated at a density of 5×10^4 cells/cm^2.
Neurons cultured 14–17 days were used for the excitotoxic assays. Cultured medium was first removed and rinsed with BSS supplemented with 1 mM CaCl2, and 20 μM glycine. Neurons were challenged with 200 μM NMDA in the absence and presence of […] for 20 min at room temperature. The insults were terminated by removing the BSS containing NMDA. To reduce the excitotoxic effect due to the residual NMDA, the culture medium was supplemented with 20 μM MK-801. Cell cultures were returned to the incubator (37° C., 5% CO2). Cell death was assessed 20–24 hours after the challenge with trypan blue (0.04%) exclusion assays. Fraction of dead cells in cultures treated with control buffer (8±3%, n=2000) was subtracted as background.
NMDA insult alone caused significant cell death of 45±6% (n=2000). Neuroprotective activities as described in the Detailed Description of the Invention were expressed as percentage of net cell death in the absence and presence of 10 μM of the known NMDA receptor blockers and the identified compound. Cell death elicited by NMDA alone was considered as 100%. The assays were repeated in 4 separated occasions with different culture preparations.

Assay [2] deals with T1, NMDA receptors (NR1/NR2A) (Homo sapiens, UniProt Q05586+Q12879). The note with it: literature values; cited from earlier work.
The test system of assay [3] is cultured hippocampal neurons. The assay can be described thus: Kainate induced neuronal cell death in hippocampal cultures. The class given is cell-based, rat. The note with it: 20 μM CNQX, 10 μM MK-801, 10 μM memantine or 10 μM NBTA. As to the method: FIG. 7. NBTA protects cultured hippocampal neurons from NMDA receptor-mediated excitotoxic cell death. Trypan blue exclusion assays of (A) control neurons and neurons exposed to 200 μM NMDA in the absence (B) or presence of 10 μM memantine (C); and in the presence of 10 μM NBTA (D). (E) Normalized cell death in the absence and presence of the lead. (F) Neuronal death induced by kainate in the absence or presence of 20 μM CNQX, 10 μM MK-801, 10 μM memantine or 10 μM NBTA. Data are mean±s.e., n=2000.
To evaluate the specificity of the neuroprotective effect of NBTA<its activity against kainate induced neuronal cell death was assessed.
as §1

Assay [4] has as its target T1, NMDA receptors (NR1/NR2A). The assay can be described thus: Two-electrode voltage-clamp block of recombinant NMDA receptors expressed in Xenopus oocytes. Format: cell-based. (In two-electrode clamp one electrode senses voltage and the other passes current.)
Description: Oocytes of stage V and VI were surgically removed from the ovaries of Xenopus oocytes anesthetized with 0.4% ethyl 3-amino-benzoate methanesulfonic acid-Clusters of oocytes were incubated with 2 mg/ml collagenase (Life Technologies, Gaithersburg, Md.) for 1 hour 20 min in Ca^2+-free solution comprised of (mM) 82.5 NaCl, 2.5 KCl, 1 MgCl2, 5 HEPES, pH 7.4 with vigorous agitation to remove the follicular cell layer. Oocytes were then washed extensively with the Ca^2+-free solution to remove the collagenase. Oocytes were eventually incubated in Barth's solution consisted of (in mM): 96 NaCl, 2 mM KCl, 1.8 CaCl2, 1 MgCl2, 5 HEPES supplemented with 100U/ml penicillin and 100 ug/ml streptomycin, pH 7.4 at 17° C. Oocytes were injected with 5–15 ng of cRNA encoding NR1 or its mutant premixed with three-fold amount of cRNA encoding NR2A.
On days two to six following injection of cRNAs, whole oocyte currents were recorded with standard two-electrode voltage-clamp. All electrophysiological studies, unless otherwise stated, were performed in Ba^2+/flufenamic-Ringer's solution (in mM: 10 HEPES pH7.5, 115 NaCl, 2.8 KCl, 2.0 BaCl2, 0.1 flufenamic, 0.1 niflumic acid) at ambient temperature as previously described (Ostresh J. M., et al., J. Org. Chem., 63:8622–8623, 1998; Nefzi A., et al., Tetrahedron, 55:335–344, 1999). Both current and voltage electrodes were filled with 3M KCl and have a tested resistance of 0.5–1 MOhm. The blocking activities of the library were assessed at 10 μM (assuming the molecular weight is ˜500). […] Inward currents were elicited from a holding potential of −80 mV except where indicated. […] Blocking activity of the mixture is expressed as fraction of response blocked by the mixture. Dose-response curves were fitted to the Hill equation:
[formula] where y is the ratio of current in the presence and presence of blocker, [x] is the blocker concentration, and IC50 and nH represent the concentration blocks 50% of response and Hill coefficient, respectively. Current-voltage relationships were measured first in the absence and then in the presence of a given concentration of lead at a specified membrane holding potential, and the ratio of these currents was plotted as a function of the holding potential. Analysis of the voltage dependent block current was performed according to the model proposed by Woodhull (Woodhull A. M., J. Gen. Physiol., 61:687–708, 1973). Data were fitted with the equation according to Zarei and Dani (Zarei M. M. and Dani J. A., J. Gen. Physiol., 1103(2):231–48, 1994):
[formula] where Ib and Ic are currents recorded during the blockade and control, respectively; [B] is the concentration of the blocker; Kd is the dissociation constant of the blocker at 0 mV; δ is the fraction of the membrane field sensed by the blocker as it binds to its site; V is the command voltage; R is the gas constant; T is the absolute temperature; F is the Faraday's number; z is the valence of the blocker.
Assay [5] concerns the target T2, non-NMDA glutamate receptor GluR1 (Homo sapiens, UniProt P42261).
T2 construct: expressed in transfected cells
The assay can be described thus: Two-electrode voltage-clamp block of GluR1 expressed in Xenopus oocytes. Format: cell-based. An excerpt:
Recombinant NMDA receptor subunits, NR1 (Planells-Cases R, et al., Proc. Natl. Acad. Sci. USA, 90(11):5057–61, 1993) and NR2A (Le Bourdelles B, et al., J. Neurochem., 62(6):2091–8, 1994) was used for screening the dipeptidomimetic combinatorial library. cDNAs of NR1 and NR2A were linearized with NOT1. cRNAs encoding NR1 and NR2A were synthesized from the linearized cDNAs templates according to manufacturer specifications (Ambion). NR1 mutant (N616Q) was used to examine the site of action of the identified lead. The NR1A mutants were linearized with NOT1 and use of T7 for sense. cDNA of human glutamate receptor/GluR1 (Sun W., et al., Proc. Natl. Acad. Sci. USA, 89:1443–1447, 1992) was linearized with Hind III and the use of T3 promoter for the synthesis of its […]. cDNAs were quantified by spectroscopy and the quality were assessed by gel electrophoresis. […]
(§2) On days two to six following injection of cRNAs, whole oocyte currents were recorded with standard two-electrode voltage-clamp. […] The blocking activities of the library were assessed at 10 μM (assuming the molecular weight is ˜500). […] Blocking activity of the mixture is expressed as fraction of response blocked by the mixture. […]

Another assay concerns the target NMDA receptor, NR1 N616R (Homo sapiens, UniProt Q05586+Q12879, N616R). The assay can be described thus: Block of NMDA receptor with NR1 N-site mutant N616R in oocytes. The class given is cell-based. The settings on record: versus wild type.
Assay [6] has as its target NMDA receptor, NR1 mutant (N616Q) (Homo sapiens, UniProt Q05586+Q12879, N616Q). The assay can be described thus: Block of NMDA receptor with NR1 mutant N616Q in oocytes. The settings on record: versus wild type. The class given is cell-based.
In assay [7] the target is NMDA receptor, NR2A tryptophan 606 to leucine (Homo sapiens, UniProt Q05586+Q12879, W606L). The assay can be described thus: Block of NMDA receptor with NR2A tryptophan 606 to leucine substitution in oocytes. Format: cell-based. The settings on record: versus wild type. Here is the method: (§3) In contrast, mutations at N614G, N615G and S616G in the M2 segment had no effect on NBTA binding.
(§4) Oocytes of stage V and VI were surgically removed from the ovaries of […] anesthetized with 0.4% ethyl 3-amino-benzoate methanesulfonic acid-Clusters of oocytes were incubated with 2 mg/ml collagenase (Life Technologies, Gaithersburg, Md.) for 1 hour 20 min in Ca^2+-free solution comprised of (mM) 82.5 NaCl, 2.5 KCl, 1 MgCl2, 5 HEPES, pH 7.4 with vigorous agitation to remove the follicular cell layer. Oocytes were then washed extensively with the Ca^2+-free solution to remove the collagenase. Oocytes were eventually incubated in Barth's solution consisted of (in mM): 96 NaCl, 2 mM KCl, 1.8 CaCl2, 1 MgCl2, 5 HEPES supplemented with 100U/ml penicillin and 100 ug/ml streptomycin, pH 7.4 at 17° C. Oocytes were injected with 5–15 ng of cRNA encoding NR1 or its mutant premixed with three-fold amount of cRNA encoding NR2A.
as §2

Assay [8] deals with NMDA receptor, N614G (NR2 mutant) (Homo sapiens, UniProt Q05586+Q12879, N614G). The assay can be described thus: Block of NMDA receptor with N614G mutation in oocytes. The settings on record: versus wild type. The class given is cell-based. Here is the method:
as §3, §4, §2

Another assay addresses NMDA receptor, N615G (Homo sapiens, UniProt Q05586+Q12879, N615G). The assay can be described thus: Block of NMDA receptor with N615G mutation in oocytes. Format: cell-based. The settings on record: versus wild type. Here is the method:
as §3, §4, §2

The target in a further assay is NMDA receptor, S616G (Homo sapiens, UniProt Q05586+Q12879, S616G). The assay can be described thus: Block of NMDA receptor with S616G mutation in oocytes. Format: cell-based. The note with it: versus wild type. Here is the method: as §3, §4, §2
Assay [9] addresses NMDA receptor, N616Q (NR1 mutant) with N614G (NR2 mutant) (Homo sapiens, UniProt Q05586+Q12879, N614G/N616Q). The assay can be described thus: Block of NMDA receptor with coexpressed N616Q (NR1 mutant) and N614G (NR2 mutant) in oocytes. Format: cell-based. The settings on record: versus N616Q alone. As to the method: as §3, §4, §2

T2 sequence (P42261 19-906): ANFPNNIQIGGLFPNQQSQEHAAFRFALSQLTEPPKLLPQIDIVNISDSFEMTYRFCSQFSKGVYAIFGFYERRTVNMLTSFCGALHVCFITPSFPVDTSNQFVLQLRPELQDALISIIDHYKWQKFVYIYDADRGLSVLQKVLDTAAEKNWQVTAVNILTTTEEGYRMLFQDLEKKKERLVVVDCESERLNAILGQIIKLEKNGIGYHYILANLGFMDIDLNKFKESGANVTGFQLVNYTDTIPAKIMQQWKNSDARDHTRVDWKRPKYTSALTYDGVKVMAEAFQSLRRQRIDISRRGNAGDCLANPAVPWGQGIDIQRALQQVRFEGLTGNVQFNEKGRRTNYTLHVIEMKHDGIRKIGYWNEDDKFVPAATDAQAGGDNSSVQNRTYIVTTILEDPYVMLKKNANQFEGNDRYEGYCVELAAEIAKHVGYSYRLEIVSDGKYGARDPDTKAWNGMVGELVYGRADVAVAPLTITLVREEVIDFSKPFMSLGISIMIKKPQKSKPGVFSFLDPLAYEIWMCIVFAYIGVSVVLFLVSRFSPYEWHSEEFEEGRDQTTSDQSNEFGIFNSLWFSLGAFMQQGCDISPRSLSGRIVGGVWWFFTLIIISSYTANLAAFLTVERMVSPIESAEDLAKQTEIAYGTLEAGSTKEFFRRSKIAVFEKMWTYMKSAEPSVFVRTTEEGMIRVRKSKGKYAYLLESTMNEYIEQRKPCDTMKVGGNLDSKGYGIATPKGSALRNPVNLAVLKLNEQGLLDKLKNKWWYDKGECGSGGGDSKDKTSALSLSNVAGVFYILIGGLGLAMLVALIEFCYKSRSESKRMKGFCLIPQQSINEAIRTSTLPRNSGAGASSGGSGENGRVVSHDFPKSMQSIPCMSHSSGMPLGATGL
T1 sequence (Q12879 23-1464, other chains not shown): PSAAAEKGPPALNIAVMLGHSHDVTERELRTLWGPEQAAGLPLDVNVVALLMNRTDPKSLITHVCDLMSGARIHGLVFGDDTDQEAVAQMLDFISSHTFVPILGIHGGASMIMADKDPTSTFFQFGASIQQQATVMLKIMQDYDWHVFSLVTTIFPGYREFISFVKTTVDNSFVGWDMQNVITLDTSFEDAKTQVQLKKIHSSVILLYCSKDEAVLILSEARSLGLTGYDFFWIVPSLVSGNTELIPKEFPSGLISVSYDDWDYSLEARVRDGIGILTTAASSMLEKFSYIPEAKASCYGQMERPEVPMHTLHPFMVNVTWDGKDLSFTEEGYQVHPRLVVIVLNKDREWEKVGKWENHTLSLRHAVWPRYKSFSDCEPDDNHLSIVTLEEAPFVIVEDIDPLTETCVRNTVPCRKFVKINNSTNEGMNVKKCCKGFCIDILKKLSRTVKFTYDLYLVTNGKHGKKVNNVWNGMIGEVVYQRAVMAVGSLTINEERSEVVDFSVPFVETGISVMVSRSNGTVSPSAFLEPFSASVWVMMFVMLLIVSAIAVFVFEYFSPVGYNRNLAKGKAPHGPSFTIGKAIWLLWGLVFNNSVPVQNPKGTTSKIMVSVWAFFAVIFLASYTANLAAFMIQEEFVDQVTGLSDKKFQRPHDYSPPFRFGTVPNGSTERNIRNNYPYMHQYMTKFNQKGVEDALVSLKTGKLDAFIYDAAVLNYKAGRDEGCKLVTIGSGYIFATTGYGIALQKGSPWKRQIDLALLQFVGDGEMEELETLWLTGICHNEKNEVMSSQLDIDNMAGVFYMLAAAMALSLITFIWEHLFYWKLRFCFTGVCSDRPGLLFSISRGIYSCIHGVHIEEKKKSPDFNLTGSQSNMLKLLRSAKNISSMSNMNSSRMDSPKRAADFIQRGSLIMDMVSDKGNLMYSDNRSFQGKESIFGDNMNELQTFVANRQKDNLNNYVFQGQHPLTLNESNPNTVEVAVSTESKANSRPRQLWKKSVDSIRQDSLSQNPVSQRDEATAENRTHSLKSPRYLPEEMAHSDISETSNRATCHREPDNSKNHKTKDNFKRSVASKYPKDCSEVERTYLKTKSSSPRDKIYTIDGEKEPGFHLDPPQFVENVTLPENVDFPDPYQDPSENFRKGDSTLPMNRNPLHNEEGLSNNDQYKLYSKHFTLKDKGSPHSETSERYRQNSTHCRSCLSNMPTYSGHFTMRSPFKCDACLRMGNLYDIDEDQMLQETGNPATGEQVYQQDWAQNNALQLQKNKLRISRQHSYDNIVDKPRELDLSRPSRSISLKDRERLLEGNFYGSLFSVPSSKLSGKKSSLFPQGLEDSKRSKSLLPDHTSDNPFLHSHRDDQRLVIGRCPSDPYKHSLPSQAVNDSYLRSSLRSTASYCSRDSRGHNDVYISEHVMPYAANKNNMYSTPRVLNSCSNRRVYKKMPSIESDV
Sequence of NMDA receptor, NR2A tryptophan 606 to leucine (Q12879 23-1464 W606L, other chains not shown): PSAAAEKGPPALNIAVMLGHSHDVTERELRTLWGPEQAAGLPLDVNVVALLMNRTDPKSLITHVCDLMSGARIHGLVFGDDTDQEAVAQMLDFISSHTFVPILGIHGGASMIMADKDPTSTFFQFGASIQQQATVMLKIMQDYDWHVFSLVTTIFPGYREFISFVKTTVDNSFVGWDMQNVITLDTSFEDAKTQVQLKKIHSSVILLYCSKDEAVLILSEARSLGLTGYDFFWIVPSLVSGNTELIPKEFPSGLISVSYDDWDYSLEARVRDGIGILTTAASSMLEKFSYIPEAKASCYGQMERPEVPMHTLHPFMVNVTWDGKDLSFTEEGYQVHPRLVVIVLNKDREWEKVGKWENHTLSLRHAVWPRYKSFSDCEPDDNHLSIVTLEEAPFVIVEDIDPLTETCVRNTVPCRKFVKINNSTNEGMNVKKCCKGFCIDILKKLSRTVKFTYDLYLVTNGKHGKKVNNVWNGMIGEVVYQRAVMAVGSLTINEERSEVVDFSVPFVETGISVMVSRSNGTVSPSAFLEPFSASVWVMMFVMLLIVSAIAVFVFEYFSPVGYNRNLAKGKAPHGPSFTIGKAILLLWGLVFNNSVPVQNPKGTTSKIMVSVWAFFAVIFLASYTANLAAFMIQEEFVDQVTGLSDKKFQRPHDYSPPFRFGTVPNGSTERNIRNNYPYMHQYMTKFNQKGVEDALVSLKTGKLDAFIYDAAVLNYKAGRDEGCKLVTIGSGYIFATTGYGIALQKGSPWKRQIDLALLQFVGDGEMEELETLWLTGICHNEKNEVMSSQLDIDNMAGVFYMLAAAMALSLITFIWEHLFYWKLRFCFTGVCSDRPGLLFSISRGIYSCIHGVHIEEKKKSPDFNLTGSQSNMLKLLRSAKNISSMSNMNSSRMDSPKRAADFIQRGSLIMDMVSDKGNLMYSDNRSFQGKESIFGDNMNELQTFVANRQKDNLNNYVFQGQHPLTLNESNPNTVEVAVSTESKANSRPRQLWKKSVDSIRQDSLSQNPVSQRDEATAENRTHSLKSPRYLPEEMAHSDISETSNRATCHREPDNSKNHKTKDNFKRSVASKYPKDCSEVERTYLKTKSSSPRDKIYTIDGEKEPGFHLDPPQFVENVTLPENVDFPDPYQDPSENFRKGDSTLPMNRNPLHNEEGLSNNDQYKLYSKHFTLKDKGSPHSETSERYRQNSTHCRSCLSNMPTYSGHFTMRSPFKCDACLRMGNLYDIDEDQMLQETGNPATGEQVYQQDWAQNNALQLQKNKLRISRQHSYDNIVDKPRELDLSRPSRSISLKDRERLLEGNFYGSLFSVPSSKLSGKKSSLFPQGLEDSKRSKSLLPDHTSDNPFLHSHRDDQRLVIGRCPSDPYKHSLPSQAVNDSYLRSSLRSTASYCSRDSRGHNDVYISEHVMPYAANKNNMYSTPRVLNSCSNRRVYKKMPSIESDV

For `CN[C@H](CC(=O)O)C(=O)O` [NMDA, N-methyl-D aspartate], in assay [1] (no blocker), the “cell death induced by NMDA” value was 50±3% and 45±6%.
`[Mg+2]` [Mg^2+]: in assay [2], the “δ, fraction of the membrane field sensed by the blocker” value (“δ, fraction” for short) is ~0.77.
For the molecule `C[C@]12N[C@H](Cc3ccccc31)c1ccccc12` [MK-801], the “protection from NMDA receptor-mediated cell death” value (“protection” below) in [1] is 89±1%. Moreover, the “effect on neuronal cell death induced by kainate” value (“effect … by kainate” below) in [3] is “protect neurons as well, though not as effectively as CNQX”.
With `CC12CC3CC(C)(C1)CC(N)(C3)C2` [memantine, 1-amino-3,5-dimethyladamantane], in assay [1], the “protection” value is on record as 93±1%. The “effect … by kainate” value in assay [3] is given as “protect neurons as well, though not as effectively as CNQX”. Also, the “δ, fraction” value in assay [2] is recorded as ~0.77.
As to `N#Cc1cc2c(cc1[N+](=O)[O-])=NC(=O)C(=O)N=2` [CNQX, 6-cyano-7 nitroquinoxaline-2,3-dione], the “effect … by kainate” value in assay [3] is recorded as “protects neurons”.
As for `CCC(C)C(N)CN(Cc1ccccc1)C(CNCc1ccccc1)Cc1ccc(O)cc1` (stereo not shown) [NBTA], the “use dependence of NMDA receptor block” value in assay [4] (0.1 μM, repetitive pulses of glutamate (200 μM) and glycine (20 μM), -80 mV) is given as “progressive block; also recorded: progressive blockade”. For the same molecule, the “block of NMDA current” value in [4] (1 μM compound, -80 mV) was 70±3% and ~95%. The IC50 in assay [4] (Hill equation fit, n=6, read-out: IC50, wild-type NMDA receptors (NR1/NR2A)) turned out to be 80 nM. The “δ, fraction” value in assay [4] (Woodhull model of voltage-dependent block) came to 0.56. Moreover, in [4] (from δ), the “fraction of transmembrane electric field traversed to reach binding site” value is recorded as ~56%. In addition, the “voltage dependence of NMDA current reduction” value in [4] (voltage-ramp protocol, 200 μM L-glutamic acid plus 20 μM glycine) is “voltage-dependent”. In assay [5] (1 μM), the “block of GluR1” value was “not”. Also, the “effect on GluR1 / AMPA receptors” value in assay [5] (even at 1 mM / mM concentration range) is given as “no effect at all”. Further, the “reduction of blocking activity by N616R substitution” value at NMDA receptor, NR1 N616R was determined as 275 fold. Further, the “change of blocking activity by replacement of N616 for glutamine” value in assay [6] was “only slightly reduces”. Also, the “reduction of blocking activity by tryptophan to leucine substitution in NR2A” value in assay [7] is 4.7 fold. The “effect of N614G mutation on binding” value in assay [8] is listed as “no effect”. Also, the “effect of N615G mutation on binding” value at NMDA receptor, N615G is “no effect”. Besides, the “effect of S616G mutation on binding” value on NMDA receptor, S616G is reported as “no effect”. Also, the “binding with coexpressed N616Q and N614G compared with N616Q alone” value in assay [9] was “similar”. In assay [1], the “protection” value is recorded as 83±2%. For the same molecule, the “effect … by kainate” value in assay [3] is “no effect”.
